{
  "source": "patent US8642736B2",
  "about": "“Casein complexes” (DSM IP Assets B. V., priority 2006, dated 2014)",
  "key": {"[1]": {"assay": "Dispersion stability of 10% dispersion: resveratrol content, upper part vs after mixing", "type": "physicochemical", "details": "aqueous dispersion; likely much less using similar dispersion conditions", "protocol": "The powder (2.5 g) was dispersed in deionized water (47.5 g) with stirring. The dispersion was centrifuged at 3000 rpm for 5 minutes (Sigma Centrifuge 6-10, Sigma Laborzentrifugen GmbH, Germany) to remove the un-dispersible material. The supernatant was lyophilized to yield 1.7 g powder. The powder (1 g) was suspended in deionized water (9 g) to give a 10% homogenous dispersion. A sample of the dispersion was placed in a test tube and stored at room temperature for 3 hours and then at 5° C. for 1 day. A small sample was taken from the upper part of the test tube and then a sample was taken after mixing. […] The results indicated the dispersion stability. The highly concentrate dispersion can be conveniently used for various applications in pharmaceuticals and cosmetics, food and feed, especially in beverages.\nA dispersion of more than 0.005% (likely much less using similar dispersion conditions) of non-complexed resveratrol would result in precipitation of resveratrol."}, "[2]": {"assay": "Storage stability: resveratrol in supernatant of aqueous dispersions (UV method)", "type": "physicochemical", "protocol": "Resveratrol-caseinate complex used was the oven-dried material described in Example 8 (non-dispersible material was not removed by centrifugation). Crystalline resveratrol was included for comparison.\nComplexed and crystalline resveratrol was dispersed in deionized water of pH 6.8 or 3.0 to give a final target dispersion concentration of 60 and 80 ppm. The desired pH was achieved by pH adjustment using dilute HCl or NaHCO3 The samples were heated in a water bath till 80° C. and then held at 80° C. for 1 minute. The samples were stored in the dark at 25° C. and 5° C. During storage, resveratrol recrystallized and precipitated in some samples. The resveratrol concentration in the supernatant were determined by a UV method and the results are shown below, […]"}, "[3]": {"details": "target 60 ppm, pH 3.0, stored in the dark at 5 C."}, "[4]": {"details": "target 60 ppm, pH 3.0, stored in the dark at 25 C."}, "[5]": {"details": "target 60 ppm, pH 6.8, stored in the dark at 5 C."}, "[6]": {"details": "target 60 ppm, pH 6.8, stored in the dark at 25 C."}, "[7]": {"details": "target 80 ppm, pH 3.0, stored in the dark at 5 C."}, "[8]": {"details": "target 80 ppm, pH 3.0, stored in the dark at 25 C."}, "[9]": {"details": "target 80 ppm, pH 6.8, stored in the dark at 5 C."}, "[10]": {"details": "target 80 ppm, pH 6.8, stored in the dark at 25 C."}},
  "data": [
    {"smiles": "Oc1ccc(C=Cc2cc(O)cc(O)c2)cc1", "note": "[Resveratrol, 3,4′,5-trihydroxystilbene]", "values": [
      {"measurement": "dispersion concentration that would result in precipitation of resveratrol", "setting": "[1]", "result": "more than 0.005%"},
      {"measurement": "Resveratrol in supernatant, Initial", "setting": "[2]; target 60 ppm, pH 3.0, 5 C.", "result": 58, "unit": "ppm"},
      {"measurement": "Resveratrol in supernatant, Initial", "setting": "[2]; target 60 ppm, pH 3.0, 25 C.", "result": 58, "unit": "ppm"},
      {"measurement": "Resveratrol in supernatant, 1 week", "setting": "[2]; [3]", "result": 28, "unit": "ppm"},
      {"measurement": "Resveratrol in supernatant, 1 week (% in parentheses)", "setting": "[2]; [3]", "result": 48, "unit": "%"},
      {"measurement": "Resveratrol in supernatant, 2.4 week", "setting": "[2]; [3]", "result": 19, "unit": "ppm"},
      {"measurement": "Resveratrol in supernatant, 2.4 week (% in parentheses)", "setting": "[2]; [3]", "result": 33, "unit": "%"},
      {"measurement": "Resveratrol in supernatant, 1 week", "setting": "[2]; [4]", "result": 43, "unit": "ppm"},
      {"measurement": "Resveratrol in supernatant, 1 week (% in parentheses)", "setting": "[2]; [4]", "result": 74, "unit": "%"},
      {"measurement": "Resveratrol in supernatant, 2.4 week", "setting": "[2]; [4]", "result": 39, "unit": "ppm"},
      {"measurement": "Resveratrol in supernatant, 2.4 week (% in parentheses)", "setting": "[2]; [4]", "result": 67, "unit": "%"},
      {"measurement": "Resveratrol in supernatant, Initial", "setting": "[2]; target 60 ppm, pH 6.8, 5 C.", "result": 60, "unit": "ppm"},
      {"measurement": "Resveratrol in supernatant, Initial", "setting": "[2]; target 60 ppm, pH 6.8, 25 C.", "result": 60, "unit": "ppm"},
      {"measurement": "Resveratrol in supernatant, 1 week", "setting": "[2]; [5]", "result": 23, "unit": "ppm"},
      {"measurement": "Resveratrol in supernatant, 1 week (% in parentheses)", "setting": "[2]; [5]", "result": 38, "unit": "%"},
      {"measurement": "Resveratrol in supernatant, 2.4 week", "setting": "[2]; [5]", "result": 17, "unit": "ppm"},
      {"measurement": "Resveratrol in supernatant, 2.4 week (% in parentheses)", "setting": "[2]; [5]", "result": 28, "unit": "%"},
      {"measurement": "Resveratrol in supernatant, 1 week", "setting": "[2]; [6]", "result": 45, "unit": "ppm"},
      {"measurement": "Resveratrol in supernatant, 1 week (% in parentheses)", "setting": "[2]; [6]", "result": 75, "unit": "%"},
      {"measurement": "Resveratrol in supernatant, 2.4 week", "setting": "[2]; [6]", "result": 39, "unit": "ppm"},
      {"measurement": "Resveratrol in supernatant, 2.4 week (% in parentheses)", "setting": "[2]; [6]", "result": 65, "unit": "%"},
      {"measurement": "Resveratrol in supernatant, Initial", "setting": "[2]; target 80 ppm, pH 3.0, 5 C.", "result": 80, "unit": "ppm"},
      {"measurement": "Resveratrol in supernatant, Initial", "setting": "[2]; target 80 ppm, pH 3.0, 25 C.", "result": 80, "unit": "ppm"},
      {"measurement": "Resveratrol in supernatant, 1 week", "setting": "[2]; [7]", "result": 28, "unit": "ppm"},
      {"measurement": "Resveratrol in supernatant, 1 week (% in parentheses)", "setting": "[2]; [7]", "result": 35, "unit": "%"},
      {"measurement": "Resveratrol in supernatant, 2.4 week", "setting": "[2]; [7]", "result": 16, "unit": "ppm"},
      {"measurement": "Resveratrol in supernatant, 2.4 week (% in parentheses)", "setting": "[2]; [7]", "result": 20, "unit": "%"},
      {"measurement": "Resveratrol in supernatant, 1 week", "setting": "[2]; [8]", "result": 47, "unit": "ppm"},
      {"measurement": "Resveratrol in supernatant, 1 week (% in parentheses)", "setting": "[2]; [8]", "result": 59, "unit": "%"},
      {"measurement": "Resveratrol in supernatant, 2.4 week", "setting": "[2]; [8]", "result": 38, "unit": "ppm"},
      {"measurement": "Resveratrol in supernatant, 2.4 week (% in parentheses)", "setting": "[2]; [8]", "result": 48, "unit": "%"},
      {"measurement": "Resveratrol in supernatant, Initial", "setting": "[2]; target 80 ppm, pH 6.8, 5 C.", "result": 79, "unit": "ppm"},
      {"measurement": "Resveratrol in supernatant, Initial", "setting": "[2]; target 80 ppm, pH 6.8, 25 C.", "result": 79, "unit": "ppm"},
      {"measurement": "Resveratrol in supernatant, 1 week", "setting": "[2]; [9]", "result": 24, "unit": "ppm"},
      {"measurement": "Resveratrol in supernatant, 1 week (% in parentheses)", "setting": "[2]; [9]", "result": 30, "unit": "%"},
      {"measurement": "Resveratrol in supernatant, 2.4 week", "setting": "[2]; [9]", "result": 16, "unit": "ppm"},
      {"measurement": "Resveratrol in supernatant, 2.4 week (% in parentheses)", "setting": "[2]; [9]", "result": 20, "unit": "%"},
      {"measurement": "Resveratrol in supernatant, 1 week", "setting": "[2]; [10]", "result": 45, "unit": "ppm"},
      {"measurement": "Resveratrol in supernatant, 1 week (% in parentheses)", "setting": "[2]; [10]", "result": 57, "unit": "%"},
      {"measurement": "Resveratrol in supernatant, 2.4 week", "setting": "[2]; [10]", "result": 43, "unit": "ppm"},
      {"measurement": "Resveratrol in supernatant, 2.4 week (% in parentheses)", "setting": "[2]; [10]", "result": 54, "unit": "%"}
    ]}
  ]
}
